These results are taken from ChEMBL document CHEMBL4308867, “Discovery of naldemedine: A potent and orally available opioid receptor antagonist for treatment of opioid-induced adverse effects” (Bioorg Med Chem Lett, 2019).

Structures are written as SMILES. pKi: −log10 of the molar value.

Series [1] in a line: Total clearance in rat at 1 mg/kg, po administered as cassette dose. The following applies: in vivo. The class given is ADME, organism-based.
Series [2] can be described thus: Oral bioavailability in rat at 1 mg/kg administered as cassette dose. The following applies: in vivo. The class given is ADME, organism-based.
Series [3] in a line: Stability in human microsomes assessed as parent compound remaining at 0.5 uM measured after 0.5 hrs. The class given is ADME, Microsome. The following applies: read-out: Stability.
Series [4] in a line: Stability in rat microsomes assessed as parent compound remaining at 0.5 uM measured after 0.5 hrs. The class given is ADME, Microsome. The following applies: read-out: Stability.
Series [5] concerns the target T1, Delta-type opioid receptor (Homo sapiens, UniProt P41143). Briefly: Displacement of [3H]-DADLE from recombinant human delta-opioid receptor expressed in HEK293 cells. Type of series: cell-based.
The nature of series [6]: Cmax in rat brain at 1 mg/kg, po administered as cassette dose. The class given is ADME, organism-based. Further details: dose 1 mg/kg, route oral.
Series [7] has as its target T2, Mu-type opioid receptor (Homo sapiens, UniProt P35372). Briefly: Displacement of [3H]-DAMGO from recombinant human mu-opioid receptor expressed in CHOK1 cells. The class given is cell-based.
Series [8] can be described thus: Stability in plasma (unknown origin) assessed as parent compound remaining after 24 hrs. The note with it: read-out: Stability. Type of series: ADME, cell-free.
The nature of series [9]: Drug metabolism assessed as formation of 14-O-acyl form and 7-acyl form mixture.
Series [10] in a line: Brain to blood partition coefficient, Kp of the compound in rat at 1 mg/kg, po administered as cassette dose. The class given is ADME, organism-based.
Series [11] deals with T2, Mu-type opioid receptor. Kind of series: Antagonist activity at mu-opioid receptor (unknown origin) by [35S]-GTPgammaS binding assay. Type of series: functional.
In series [12] the target is T1, Delta-type opioid receptor. Kind of series: Antagonist activity at delta-opioid receptor (unknown origin) by [35S]-GTPgammaS binding assay. The class given is functional.
The test system of another series is Mustela putorius furo. Briefly: In vivo antagonist activity at mu-opioid receptor in sc dosed ferret assessed as inhibition of morphine-induced emesis/vomiting. The class given is functional.
The test system of the next series is Rattus norvegicus. Briefly: In vivo antagonist activity at […] in sc dosed rat assessed as inhibition of morphine-induced constipation. Type of series: functional.

T2 sequence (P35372 whole entry): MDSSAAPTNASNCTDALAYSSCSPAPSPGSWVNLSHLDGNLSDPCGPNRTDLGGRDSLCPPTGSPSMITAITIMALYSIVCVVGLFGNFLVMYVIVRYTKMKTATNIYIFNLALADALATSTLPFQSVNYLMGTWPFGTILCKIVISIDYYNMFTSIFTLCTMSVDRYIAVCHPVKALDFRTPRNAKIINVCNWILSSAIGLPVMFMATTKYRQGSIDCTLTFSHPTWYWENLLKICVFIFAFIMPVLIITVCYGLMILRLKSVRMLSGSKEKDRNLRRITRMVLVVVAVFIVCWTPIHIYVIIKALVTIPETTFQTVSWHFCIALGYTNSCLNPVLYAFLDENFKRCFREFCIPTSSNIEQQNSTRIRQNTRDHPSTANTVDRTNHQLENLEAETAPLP
T1 sequence (P41143 whole entry): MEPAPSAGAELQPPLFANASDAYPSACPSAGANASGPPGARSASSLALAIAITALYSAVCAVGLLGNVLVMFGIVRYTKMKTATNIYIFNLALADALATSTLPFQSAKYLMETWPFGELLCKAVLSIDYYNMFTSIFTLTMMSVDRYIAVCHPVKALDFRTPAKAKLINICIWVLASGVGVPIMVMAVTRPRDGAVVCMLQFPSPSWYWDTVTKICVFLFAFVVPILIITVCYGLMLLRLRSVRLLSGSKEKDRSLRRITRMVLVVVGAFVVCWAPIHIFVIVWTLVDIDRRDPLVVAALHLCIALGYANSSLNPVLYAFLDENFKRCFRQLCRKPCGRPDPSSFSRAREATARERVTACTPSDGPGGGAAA

In turn, `CC(=O)C1=C(O)[C@@H]2Oc3c(O)ccc4c3[C@@]23CCN(CC2CC2)[C@H](C4)[C@]3(O)C1` gave a CL/F in [1] of 233 mL/min/kg. In addition, the bioavailability in series [2] was found to be 4%. In addition, the remaining at 0.5 h, 0.5 µM in series [3] stood at 95%; in series [4] it was 80%. In addition, the pKi is 7.51 in series [5] and 9.02 on Mu-type opioid receptor [7]. In [6], the Cmax was determined as 5.8 ng/mL. Also, the remaining at 24 h in series [8] was less than 20%. Further, the Drug metabolism entry in series [9] is recorded as “Metabolite detected”. The compound further registered a Kp in series [10] of 1.1.
In the case of `C[N@+]1(CC2CC2)CC[C@]23c4c5ccc(O)c4O[C@H]2C(=O)CC[C@@]3(O)[C@H]1C5.[Br-]` [METHYLNALTREXONE BROMIDE], the values for the Ke (on Mu-type opioid receptor [11]; in series [12]) were 56 nM and 1080 nM, respectively. The ED50 in the series with Mustela putorius furo worked out at 0.69 mg/kg; in the series on Rattus norvegicus, 4.5 mg/kg.
